Source: patent US12448369B2 (Edgewise Therapeutics, Inc., priority 2023, dated 2025)

Each compound was assayed on Rabbit Psoas myofibrils (skeletal myosin ATPase) (assay: Myofibril ATPase assay, rabbit psoas (skeletal) myofibrils). Settings: Y75 value (no ‡ mark); rabbit psoas myofibrils.
Assay type: biochemical
In short: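 Values are concentrations giving 75% (Y75) or 125% (Y125) of vehicle ATPase activity, from 4-parameter logistic fits of normalized rates. Rates came from linear regression of A340 over 75 min, NADH oxidation coupled to ADP via PK-LDH. Enzyme source: skeletal myofibrils from rabbit psoas, pH 7.0 pCa buffer.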

| Structure (SMILES) | Skeletal EC25 |
| --- | --- |
| Cc1nc(C#N)ncc1[C@@H](C)NC(=O)Cc1c(C)c2cc(F)ccc2[nH]c1=O [compound 1052] | 0.78 µM |
| CNc1c(CC(=O)N[C@@H](C)c2ccc(F)cc2F)c(=O)[nH]c2ccccc12 [compound 128] | 0.17 µM |
| Cc1c(CC(=O)N[C@H](C)c2ncc(C#N)cn2)c(=O)[nH]c2cc(F)ccc12 [compound 1040] | 52 µM |
| Cc1c(C(F)(F)C(=O)N[C@H](C)c2ncc(C#N)cc2F)c(=O)[nH]c2cccc(F)c12 (single isomer, unassigned) [compound 2538] | 0.11 µM |
| Cc1c(C(F)(F)C(=O)N[C@H](C)c2cc(C#N)ccn2)c(=O)[nH]c2ccc(F)cc12 (single isomer, unassigned) [compound 2575] | 14.65 µM |
| Cc1c(CC(=O)N[C@@H](C)c2ncc(C#N)cn2)c(=O)[nH]c2ccc(F)cc12 [compound 1071] | 100.00 µM |
| Cc1c(CC(=O)N[C@@H](C)c2ccc(C#N)cc2F)c(=O)[nH]c2ccc(F)c(F)c12 [compound 66] | 0.01 µM |
| C[C@H](NC(=O)Cc1cc2cc(F)c(F)cc2[nH]c1=O)c1ccc(C#N)cn1 [compound 1115] | 11.40 µM |
| Cc1c(CC(=O)N[C@@H](C)c2ncc(C#N)cc2F)c(=O)[nH]c2ccc(F)c(C3CC3)c12 [compound 28] | 0.02 µM |
| Cc1c(CC(=O)N[C@H](C)c2ccc(C#N)cn2)c(=O)[nH]c2ccc(F)c(C3CC3)c12 [compound 23] | 0.50 µM |
| C[C@H](NC(=O)Cc1cc2c(F)cc(F)cc2[nH]c1=O)c1ncc(C#N)cc1F [compound 1138] | 0.04 µM |
| Cc1c(CC(=O)N[C@@H](C)c2ccc(C#N)cc2F)c(=O)[nH]c2ccc(F)c(C#N)c12 [compound 68] | 0.01 µM |
| C[C@@H](NC(=O)C1(c2cc3c(F)c(F)ccc3[nH]c2=O)CC1)c1cc(C#N)ccn1 (single isomer, unassigned) [compound 2583] | 100.00 µM |
| Cc1c(CC(=O)N[C@H](CO)c2ccc(F)cc2F)c(=O)[nH]c2cccc(C#N)c12 (single isomer, unassigned) [compound 89] | 0.04 µM |
| C[C@@H](NC(=O)C(F)(F)c1cc2c(F)c(F)ccc2[nH]c1=O)c1ncc(C#N)cn1 (single isomer, unassigned) [compound 2545] | 0.13 µM |
| Cc1c(CC(=O)N[C@H](C)c2ccc(C#N)cn2)c(=O)[nH]c2ccc(F)c(C#N)c12 [compound 49] | 0.06 µM |

Same assay, conditions: rabbit psoas myofibrils; Y75 value

| Structure (SMILES) | Skeletal EC25 |
| --- | --- |
| Cc1nccc2[nH]c(=O)c([C@H](C)C(=O)N[C@@H](C)c3ccc(F)cc3F)cc12 (single isomer, unassigned) [compound 442] | 12.41 µM |
| Cc1nccc2[nH]c(=O)c(CC(=O)N[C@@H](C)c3ccncc3)c(C)c12 (single isomer, unassigned) [compound 334] | 100.00 µM |
| C[C@H](NC(=O)[C@@H](C)c1cc2c(C#N)nccc2[nH]c1=O)c1ccc(F)cc1F (single isomer, unassigned) [compound 361] | 0.03 µM |

These compounds were tested on Porcine atria myofibrils (atrial myosin ATPase) (assay: Myofibril ATPase assay, porcine atria myofibrils). Settings: Y75 value (no ‡ mark); porcine atria myofibrils.
Assay type: biochemical
In short: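 Y75 (25% inhibition) or Y125 (activation) values come from 4-parameter logistic fits of vehicle-normalized rates. Rates are linear-regression slopes of NADH absorbance at 340 nm, read kinetically over 75 min, with ADP coupled to NADH oxidation via pyruvate kinase/lactate dehydrogenase.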

| Structure (SMILES) | Atrial EC25 |
| --- | --- |
| Cc1nc(C#N)ncc1[C@@H](C)NC(=O)Cc1c(C)c2cc(F)ccc2[nH]c1=O [compound 1052] | 0.65 µM |
| CNc1c(CC(=O)N[C@@H](C)c2ccc(F)cc2F)c(=O)[nH]c2ccccc12 [compound 128] | 0.90 µM |
| Cc1c(CC(=O)N[C@H](C)c2ncc(C#N)cn2)c(=O)[nH]c2cc(F)ccc12 [compound 1040] | 6.01 µM |
| Cc1c(C(F)(F)C(=O)N[C@H](C)c2ncc(C#N)cc2F)c(=O)[nH]c2cccc(F)c12 (single isomer, unassigned) [compound 2538] | 0.17 µM |
| Cc1c(C(F)(F)C(=O)N[C@H](C)c2cc(C#N)ccn2)c(=O)[nH]c2ccc(F)cc12 (single isomer, unassigned) [compound 2575] | 16.13 µM |
| Cc1c(CC(=O)N[C@@H](C)c2ncc(C#N)cn2)c(=O)[nH]c2ccc(F)cc12 [compound 1071] | 5.29 µM |
| Cc1c(CC(=O)N[C@@H](C)c2ccc(C#N)cc2F)c(=O)[nH]c2ccc(F)c(F)c12 [compound 66] | 0.05 µM |
| C[C@H](NC(=O)Cc1cc2cc(F)c(F)cc2[nH]c1=O)c1ccc(C#N)cn1 [compound 1115] | 27.67 µM |
| Cc1c(CC(=O)N[C@@H](C)c2ncc(C#N)cc2F)c(=O)[nH]c2ccc(F)c(C3CC3)c12 [compound 28] | 0.04 µM |
| Cc1c(CC(=O)N[C@H](C)c2ccc(C#N)cn2)c(=O)[nH]c2ccc(F)c(C3CC3)c12 [compound 23] | 100.00 µM |
| C[C@H](NC(=O)Cc1cc2c(F)cc(F)cc2[nH]c1=O)c1ncc(C#N)cc1F [compound 1138] | 1.64 µM |
| Cc1c(CC(=O)N[C@@H](C)c2ccc(C#N)cc2F)c(=O)[nH]c2ccc(F)c(C#N)c12 [compound 68] | 0.06 µM |
| C[C@@H](NC(=O)C1(c2cc3c(F)c(F)ccc3[nH]c2=O)CC1)c1cc(C#N)ccn1 (single isomer, unassigned) [compound 2583] | 4.31 µM |
| Cc1c(CC(=O)N[C@H](CO)c2ccc(F)cc2F)c(=O)[nH]c2cccc(C#N)c12 (single isomer, unassigned) [compound 89] | 0.05 µM |
| C[C@@H](NC(=O)C(F)(F)c1cc2c(F)c(F)ccc2[nH]c1=O)c1ncc(C#N)cn1 (single isomer, unassigned) [compound 2545] | 7.98 µM |
| Cc1c(CC(=O)N[C@H](C)c2ccc(C#N)cn2)c(=O)[nH]c2ccc(F)c(C#N)c12 [compound 49] | 0.18 µM |

Same assay, conditions: porcine atria myofibrils; Y75 value (75% activity relative to no compound)

| Structure (SMILES) | Atrial EC25 |
| --- | --- |
| Cc1nccc2[nH]c(=O)c([C@H](C)C(=O)N[C@@H](C)c3ccc(F)cc3F)cc12 (single isomer, unassigned) [compound 442] | 100.00 µM |
| Cc1nccc2[nH]c(=O)c(CC(=O)N[C@@H](C)c3ccncc3)c(C)c12 (single isomer, unassigned) [compound 334] | 100.00 µM |
| C[C@H](NC(=O)[C@@H](C)c1cc2c(C#N)nccc2[nH]c1=O)c1ccc(F)cc1F (single isomer, unassigned) [compound 361] | 1.29 µM |

These compounds were tested against T1, Porcine ventricle myofibrils (ventricular myosin ATPase) (Sus scrofa, UniProt P79293) (assay: Myofibril ATPase assay, porcine ventricle myofibrils). Settings: Y75 value (no ‡ mark); porcine ventricle myofibrils.
T1 construct: Myofibrils from porcine cardiac muscle was isolated from the left ventricle of Yucatan minipigs; tissue Exemplar Genetics; host or cells: left ventricle of Yucatan minipigs, myofibrils prepared in house
Assay type: biochemical, porcine (Yucatan minipigs)
In short: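 Read-out: A340 kinetic, NADH consumption coupled to ADP via PK-LDH, 75 min. Yucatan minipig LV myofibrils, pCa buffer (PIPES/CaCl2/EGTA, pH 7.0). Linear-regression slope (mAU/min), vehicle = 100%, 4PL fit; Y75 or Y125 reported.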

T1 sequence (P79293 whole entry): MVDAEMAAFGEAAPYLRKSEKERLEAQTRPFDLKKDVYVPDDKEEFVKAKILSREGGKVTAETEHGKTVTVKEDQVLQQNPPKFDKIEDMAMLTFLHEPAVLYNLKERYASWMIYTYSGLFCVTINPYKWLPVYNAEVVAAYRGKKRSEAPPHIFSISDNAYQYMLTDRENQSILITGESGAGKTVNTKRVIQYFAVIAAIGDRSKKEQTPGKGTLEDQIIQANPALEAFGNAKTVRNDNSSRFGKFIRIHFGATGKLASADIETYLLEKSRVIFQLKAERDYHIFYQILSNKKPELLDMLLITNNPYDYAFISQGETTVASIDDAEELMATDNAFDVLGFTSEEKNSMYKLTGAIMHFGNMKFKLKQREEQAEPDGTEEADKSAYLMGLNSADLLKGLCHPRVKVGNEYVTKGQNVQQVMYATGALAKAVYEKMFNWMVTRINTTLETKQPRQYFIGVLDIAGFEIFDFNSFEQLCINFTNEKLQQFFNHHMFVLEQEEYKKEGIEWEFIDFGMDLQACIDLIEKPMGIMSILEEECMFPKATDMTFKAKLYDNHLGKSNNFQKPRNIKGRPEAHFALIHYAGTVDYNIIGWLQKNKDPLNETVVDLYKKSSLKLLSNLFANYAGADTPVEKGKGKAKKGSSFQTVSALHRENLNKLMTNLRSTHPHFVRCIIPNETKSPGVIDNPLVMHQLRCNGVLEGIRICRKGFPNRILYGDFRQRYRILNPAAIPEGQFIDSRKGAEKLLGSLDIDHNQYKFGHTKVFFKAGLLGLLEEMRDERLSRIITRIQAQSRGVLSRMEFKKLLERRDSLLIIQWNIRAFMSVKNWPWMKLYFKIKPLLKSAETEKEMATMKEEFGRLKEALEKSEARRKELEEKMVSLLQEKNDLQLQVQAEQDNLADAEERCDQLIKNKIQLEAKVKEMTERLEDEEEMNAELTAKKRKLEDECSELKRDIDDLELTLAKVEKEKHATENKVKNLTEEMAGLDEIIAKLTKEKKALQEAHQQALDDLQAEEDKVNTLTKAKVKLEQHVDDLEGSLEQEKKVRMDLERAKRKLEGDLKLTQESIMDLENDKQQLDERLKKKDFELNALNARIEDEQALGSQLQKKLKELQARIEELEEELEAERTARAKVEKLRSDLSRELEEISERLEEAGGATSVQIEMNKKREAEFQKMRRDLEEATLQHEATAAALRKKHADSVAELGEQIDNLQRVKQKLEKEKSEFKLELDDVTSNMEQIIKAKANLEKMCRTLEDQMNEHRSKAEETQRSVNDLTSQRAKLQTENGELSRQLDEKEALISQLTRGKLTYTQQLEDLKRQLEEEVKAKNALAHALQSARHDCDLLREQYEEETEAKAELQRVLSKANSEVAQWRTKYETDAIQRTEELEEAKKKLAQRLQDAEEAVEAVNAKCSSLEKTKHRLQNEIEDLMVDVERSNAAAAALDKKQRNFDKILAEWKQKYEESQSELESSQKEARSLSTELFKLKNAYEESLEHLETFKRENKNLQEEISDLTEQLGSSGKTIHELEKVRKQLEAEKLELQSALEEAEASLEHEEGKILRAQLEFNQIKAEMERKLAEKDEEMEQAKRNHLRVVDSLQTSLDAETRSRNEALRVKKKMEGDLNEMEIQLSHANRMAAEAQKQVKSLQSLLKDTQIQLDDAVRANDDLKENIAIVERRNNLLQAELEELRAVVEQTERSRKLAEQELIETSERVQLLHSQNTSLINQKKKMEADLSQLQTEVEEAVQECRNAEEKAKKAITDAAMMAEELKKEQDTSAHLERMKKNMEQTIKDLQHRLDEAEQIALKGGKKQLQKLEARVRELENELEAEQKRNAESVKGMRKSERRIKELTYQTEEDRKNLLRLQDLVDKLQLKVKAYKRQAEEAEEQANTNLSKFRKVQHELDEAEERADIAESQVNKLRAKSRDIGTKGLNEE

| Structure (SMILES) | Ventricular EC25 |
| --- | --- |
| Cc1nc(C#N)ncc1[C@@H](C)NC(=O)Cc1c(C)c2cc(F)ccc2[nH]c1=O [compound 1052] | 7.05 µM |
| CNc1c(CC(=O)N[C@@H](C)c2ccc(F)cc2F)c(=O)[nH]c2ccccc12 [compound 128] | 9.83 µM |
| Cc1c(CC(=O)N[C@H](C)c2ncc(C#N)cn2)c(=O)[nH]c2cc(F)ccc12 [compound 1040] | 12 µM |
| Cc1c(C(F)(F)C(=O)N[C@H](C)c2ncc(C#N)cc2F)c(=O)[nH]c2cccc(F)c12 (single isomer, unassigned) [compound 2538] | 0.18 µM |
| Cc1c(C(F)(F)C(=O)N[C@H](C)c2cc(C#N)ccn2)c(=O)[nH]c2ccc(F)cc12 (single isomer, unassigned) [compound 2575] | 20.79 µM |
| Cc1c(CC(=O)N[C@@H](C)c2ncc(C#N)cn2)c(=O)[nH]c2ccc(F)cc12 [compound 1071] | 11.94 µM |
| Cc1c(CC(=O)N[C@@H](C)c2ccc(C#N)cc2F)c(=O)[nH]c2ccc(F)c(F)c12 [compound 66] | 0.06 µM |
| C[C@H](NC(=O)Cc1cc2cc(F)c(F)cc2[nH]c1=O)c1ccc(C#N)cn1 [compound 1115] | 69.62 µM |
| Cc1c(CC(=O)N[C@@H](C)c2ncc(C#N)cc2F)c(=O)[nH]c2ccc(F)c(C3CC3)c12 [compound 28] | 0.06 µM |
| Cc1c(CC(=O)N[C@H](C)c2ccc(C#N)cn2)c(=O)[nH]c2ccc(F)c(C3CC3)c12 [compound 23] | 1.19 µM |
| C[C@H](NC(=O)Cc1cc2c(F)cc(F)cc2[nH]c1=O)c1ncc(C#N)cc1F [compound 1138] | 1.22 µM |
| Cc1c(CC(=O)N[C@@H](C)c2ccc(C#N)cc2F)c(=O)[nH]c2ccc(F)c(C#N)c12 [compound 68] | 0.07 µM |
| C[C@@H](NC(=O)C1(c2cc3c(F)c(F)ccc3[nH]c2=O)CC1)c1cc(C#N)ccn1 (single isomer, unassigned) [compound 2583] | 100.00 µM |
| Cc1c(CC(=O)N[C@H](CO)c2ccc(F)cc2F)c(=O)[nH]c2cccc(C#N)c12 (single isomer, unassigned) [compound 89] | 0.32 µM |
| C[C@@H](NC(=O)C(F)(F)c1cc2c(F)c(F)ccc2[nH]c1=O)c1ncc(C#N)cn1 (single isomer, unassigned) [compound 2545] | 1.22 µM |
| Cc1c(CC(=O)N[C@H](C)c2ccc(C#N)cn2)c(=O)[nH]c2ccc(F)c(C#N)c12 [compound 49] | 0.68 µM |

Same assay, conditions: porcine ventricle myofibrils; Y75 value

| Structure (SMILES) | Ventricular EC25 |
| --- | --- |
| Cc1nccc2[nH]c(=O)c([C@H](C)C(=O)N[C@@H](C)c3ccc(F)cc3F)cc12 (single isomer, unassigned) [compound 442] | 100.00 µM |
| Cc1nccc2[nH]c(=O)c(CC(=O)N[C@@H](C)c3ccncc3)c(C)c12 (single isomer, unassigned) [compound 334] | 100.00 µM |
| C[C@H](NC(=O)[C@@H](C)c1cc2c(C#N)nccc2[nH]c1=O)c1ccc(F)cc1F (single isomer, unassigned) [compound 361] | 3.68 µM |
